A short description of data set [1]: Pharmacokinetics of AE-PM components and their phase II metabolites in rat plasma after single oral administration (UHPLC-MS/MS, with and without sulfatase hydrolysis). As to conditions: for AUC(0-inf) / CL/F / Cmax / MRT inf / Tmax / Vd/F / half-life: rat, po; for CL/F: CLz/F; for MRT inf: MRT (0-∞); for Vd/F: Vz/F; for half-life: t1/2z; for Conversion into phase II metabolites: rats.
Description: (§1) To explore the pharmacokinetic properties of PM following intragastric administration in rats, a rapid and sensitive method involving the use of UHPLC-MS/MS (Agilent 6460 series, Agilent Technologies, Santa Clara, CA, United States) was developed and validated for the simultaneous quantification of nine active components in rat plasma. The quantification was conducted in ESI negative ionization mode, and mass spectrometry conditions were set up as follows: capillary voltage of 3500 V; gas flow at 12 L/min; nebulizer of 40 psi; the gas temperature of 350°C; and delta EMV (−) of 400. A 10 µl extraction sample was injected into the column (Agilent SB-C18 column, 2.1 mm × 50 mm, 1.8 mm) and eluted at 0.4 ml/min with a gradient elution of water (with 0.1% v/v formic acid) (A) and acetonitrile (B) (0–1.5 min, 20–30% B; 1.5–3.5 min, 30–50% B; 3.five to four min, 50–55%B; 4–6.5 min, 55–85% B; 6.5–6.6 min, 85–20% B and re-equilibration for 3 min).
(§2) A 50 µl aliquot of blood plasma sample was placed in a centrifuge tube with 50 µl of puerarin (internal standard, IS) solution (1,000 ng/ml), followed by 150 µl methanol, which was mixed for 5 min. Then, the mixture was centrifuged for 10 min at 15,000 rpm (4°C), the supernatant was transferred to a clean centrifuge tube and dried with nitrogen gas at room temperature. The residue was resuspended in 100 µl of methanol, then centrifuged at 15,000 rpm (4°C, 10 min), and 10 µl of the supernatant was analyzed by UHPLC-MS/MS.
(§3) Additional plasma samples (50 µl) were enzymatically hydrolyzed with 50 µl of enzyme solution (65.86 mg of sulfatase, dissolved in 2 ml of sodium acetate buffer, pH 5.0) for phase II metabolite quantification, in accordance with our previous study ([Ding et al., 2012]; [Yi et al., 2018]). After being vortex mixed for 5 min, the mixture was incubated at 37°C for 30 min and returned to room temperature. Subsequently, the samples were processed as described above.
(§4) The remaining 21 rats of the three groups were treated with a single oral dose of AE-PM (50.4 g PM/kg). […] Blood was collected in heparinized tubes at 5, 15, 30, 45, 60, 120, 240, 360, 480, 720, 1,440, 2,880, and 4,320 min after administration. The blood samples were centrifuged at 5,000 rpm (4°C) for 7 min, and the supernatant plasma was harvested.
(§5) All data were presented as mean ± standard deviation (SD). A one-way analysis of variance (ANOVA) was used to compare the data between three groups. The differences were considered to be statistically significant when p < 0.05 and highly significant when the p-value was <0.01 or p < 0.001. Spearman rank correlation coefficient, calculated by bivariate correlation analysis was used to evaluate the correlation between AUC values and expression levels of metabolic enzyme and transporters. All statistical analyses were performed with the SPSS Statistics system (SPSS vision 21.0). Pharmacokinetic data analyses were performed using DAS 2.1.1 software (Mathematical Pharmacology Professional Committee of China, Shanghai, China).

Another data set is described as follows: in vivo. As to conditions: rat, po, 50 g/kg; for MRT inf: MRT (0-∞); for MRT inf / Tmax: oral AE-PM 50 g/kg, plasma, n = 6.
[2] abbreviates: plasma, 50 g/kg, ANIT group rats, oral AE-PM 50 g/kg, plasma, n = 6.
Setting [3] is: plasma, 50 g/kg, CCl4 group rats, oral AE-PM 50 g/kg, plasma, n = 6.
Setting [4] is: plasma, 50 g/kg, Normal group rats, oral AE-PM 50 g/kg, plasma, n = 6.

Description for in vivo: as §1, §2, §3, §4, §5

For orientation: AUC(0-inf) means the area under the concentration-time curve extrapolated to infinity. For orientation: CL/F means the apparent clearance, not corrected for the fraction that reaches the circulation. In general, Cmax refers to the highest concentration seen after dosing. Usually MRT inf stands for the average time that molecules of a dose stay in the body. One may read the Tmax as the time at which the peak concentration occurs. By Vd/F is commonly meant the apparent distribution volume after extravascular dosing. In general, half-life refers to the time in which the quantity being followed falls by half. With `Cc1cc(O[C@@H]2O[C@H](CO)[C@@H](O)[C@H](O)[C@H]2O)c2c(c1)C(=O)c1cc(O)cc(O)c1C2=O` [E-glu, emodin-8-O-β-D-glucoside], in data set [1] (ANIT model rats, oral AE-PM), the “Decrease of AUC (0-∞) compared with the normal group” value worked out at 8.25% and the “Decrease of Cmax compared with the normal group” value turned out to be 22.98%. Besides, in data set [1] (CCl4 model rats, oral AE-PM), the “Increase of AUC (0-∞) compared with the normal group” value (“Increase of AUC (0-∞)” below) was found to be 655.90% and the “Increase of Cmax compared with the normal group” value (shortened to “Increase of Cmax”) came out at 620.15%. Moreover, in data set [1] (setting [2]), the AUC(0-inf) is 1720 ± 170 ng·h/mL, the CL/F is 193 mL/min/kg, the Cmax came to 633 ± 50 ng/mL and the MRT inf turned out to be 2.81 ± 0.872 h. For the same compound, in data set [1] (setting [2]), the Tmax came to 1 ± 0.248 h, the Vd/F is 78.3 ± 4.4 L/kg and the half-life is 4.68 ± 1.1 h. In data set [1] (setting [3]), the AUC(0-inf) is 14200 ng·h/mL, the CL/F was 23.5 mL/min/kg, the Cmax turned out to be 5920 ng/mL and the MRT inf worked out at 2.44 ± 1.17 h. Also, in data set [1] (setting [3]), the Tmax stood at 1 ± 0.289 h, the Vd/F came to 8.13 ± 1.75 L/kg and the half-life was 4 ± 1.4 h. In data set [1] (setting [4]), the AUC(0-inf) stood at 1880 ± 538 ng·h/mL, the CL/F is 177 mL/min/kg, the Cmax was 821 ± 85 ng/mL and the MRT inf is 3.88 ± 1.52 h. In data set [1] (setting [4]), the Tmax was 0.25 ± 0.0301 h, the Vd/F stood at 60.2 ± 9.45 L/kg and the half-life is 3.92 ± 0.219 h.

Turning to `COc1cc(O)c2c(c1)C(=O)c1cc(C)cc(O[C@@H]3O[C@H](CO)[C@@H](O)[C@H](O)[C@H]3O)c1C2=O` [P-glu, physcion-8-O-β-D-glucoside], in data set [1] (setting [2]), the AUC(0-inf) amounted to 7050 ng·h/mL, the CL/F was 47.3 mL/min/kg, the Cmax was 223 ± 13.2 ng/mL and the MRT inf stood at 18.8 ± 3.36 h. In data set [1] (setting [2]), the time to peak (Tmax) came out at 1 ± 0.232 h, the Vd/F stood at 13.2 ± 1.86 L/kg and the half-life is 3.22 ± 0.473 h. In data set [1] (setting [3]), the AUC(0-inf) came to 1450 ng·h/mL, the CL/F is 230 mL/min/kg, the Cmax came out at 211 ± 3.04 ng/mL and the MRT inf was found to be 7.48 ± 1.42 h. In data set [1] (setting [3]), the time of peak concentration (Tmax) turned out to be 0.25 ± 0.0661 h, the Vd/F came out at 81.3 ± 5.01 L/kg and the half-life is 4.08 ± 0.453 h. Further, in data set [1] (setting [4]), the AUC(0-inf) was 2270 ng·h/mL, the CL/F was 147 mL/min/kg, the Cmax came out at 148 ± 8.95 ng/mL and the MRT inf was found to be 15.9 ± 2.36 h. Besides, in data set [1] (setting [4]), the Tmax was 0.75 ± 0.049 h, the Vd/F was 143 ± 11.1 L/kg and the half-life is 11.3 ± 1.85 h.

As to `OC[C@H]1O[C@@H](Oc2c(O)cc(O)cc2/C=C/c2ccc(O)cc2)[C@H](O)[C@@H](O)[C@@H]1O` [TSG, 2,3,5,4'-tetrahydroxystilbene-2-O-β-D-glucoside], in data set [1] (ANIT model rats, oral AE-PM), the “Increase of AUC (0-∞)” value is 2,548.17% and the “Increase of Cmax” value turned out to be 560.12%. For the same compound, in data set [1] (CCl4 model rats, oral AE-PM), the “Increase of AUC (0-∞)” value came out at 802.14% and the “Increase of Cmax” value came to 236.59%. In data set [1] (setting [2]), the AUC(0-inf) came out at 341000 ng·h/mL, the CL/F is 0.983 mL/min/kg, the Cmax turned out to be 99300 ng/mL and the MRT inf was 6.03 ± 1.93 h. Moreover, in data set [1] (setting [2]), the Tmax is 0.5 ± 0.0278 h, the Vd/F is 0.221 ± 0.0206 L/kg and the half-life was 2.61 ± 0.612 h. In data set [1] (setting [3]), the AUC(0-inf) stood at 116000 ng·h/mL, the CL/F was 2.87 mL/min/kg, the Cmax came to 50600 ng/mL and the MRT inf came out at 3.4 ± 1.04 h. In data set [1] (setting [3]), the Tmax was 0.75 ± 0.136 h, the Vd/F turned out to be 0.698 ± 0.073 L/kg and the half-life is 2.81 ± 0.878 h. Further, in data set [1] (setting [4]), the AUC(0-inf) is 12900 ng·h/mL, the CL/F is 25.9 mL/min/kg, the Cmax came out at 15000 ng/mL and the MRT inf is 4.54 ± 1.23 h. Also, in data set [1] (setting [4]), the Tmax is 0.25 ± 0.0293 h, the Vd/F was found to be 4.37 ± 0.711 L/kg and the half-life is 1.95 ± 0.806 h. Also, the “Conversion into phase II metabolites” value in data set [1] (oral AE-PM, plasma) is recorded as “partially converted”.

With `Oc1cc(O)c2c(c1)O[C@H](c1ccc(O)c(O)c1)[C@@H](O)C2` [Catechin, catechin], in data set [1] (setting [2]), the AUC(0-inf) turned out to be 11600 ng·h/mL, the CL/F is 28.8 mL/min/kg, the Cmax came out at 84.5 ± 8.85 ng/mL and the MRT inf amounted to 253 ± 3.75 h. Further, in data set [1] (setting [2]), the Tmax was 1 ± 0.742 h, the Vd/F was found to be 442 ± 16.9 L/kg and the half-life is 177.3 ± 1.09 h. In data set [1] (setting [3]), the AUC(0-inf) came out at 1500 ng·h/mL, the CL/F is 222 mL/min/kg, the Cmax came to 453 ± 8.94 ng/mL and the MRT inf came to 11.2 ± 1.23 h. Also, in data set [1] (setting [3]), the time of peak concentration (Tmax) stood at 0.5 ± 0.0408 h, the Vd/F is 72.2 ± 12.6 L/kg and the half-life was 3.76 ± 0.816 h. In addition, in data set [1] (setting [4]), the AUC(0-inf) is 12600 ng·h/mL, the CL/F was 26.4 mL/min/kg, the Cmax was 251 ± 11.8 ng/mL and the MRT inf was found to be 146 ± 11.3 h. Moreover, in data set [1] (setting [4]), the Tmax stood at 0.25 ± 0.0234 h, the Vd/F was found to be 237 ± 18.3 L/kg and the half-life is 104 ± 14.9 h. Besides, in data set [1] (oral AE-PM, plasma), the “Conversion into phase II metabolites” value is recorded as “partially converted”.

As for `O=C1c2cccc(O)c2C(=O)c2c(O)cc(CO)cc21` [Aloe-emodin, aloe-emodin], the t1/2z in data set [1] (CCl4 group rats, oral AE-PM 50 g/kg, plasma, n = 6) turned out to be 3.448 ± 0.177 h. In addition, in data set [1] (setting [2]), the AUC(0-inf) worked out at 41700 ng·h/mL, the CL/F was 7.98 mL/min/kg, the Cmax was found to be 1570 ng/mL and the MRT inf was 198 ± 3.17 h. Also, in data set [1] (setting [2]), the Tmax came out at 0.25 ± 0.032 h, the Vd/F worked out at 96.7 ± 8.35 L/kg and the half-life is 140 ± 8.29 h. Besides, in data set [1] (setting [3]), the AUC(0-inf) was found to be 6620 ng·h/mL, the CL/F was 50.4 mL/min/kg, the Cmax was 2600 ng/mL and the MRT inf is 6.47 ± 0.422 h. Besides, in data set [1] (setting [3]), the Tmax was found to be 0.25 ± 0.052 h and the Vd/F came to 15 ± 1.2 L/kg. Also, in data set [1] (setting [4]), the AUC(0-inf) worked out at 3560 ng·h/mL, the CL/F is 93.6 mL/min/kg, the Cmax stood at 1270 ng/mL and the mean residence time MRT inf came out at 14 ± 1.42 h. In addition, in data set [1] (setting [4]), the Tmax was 0.167 ± 0.051 h, the Vd/F was 28.7 ± 1.55 L/kg and the half-life is 3.54 ± 0.185 h. Moreover, the Tmax in data set [1] (plasma, 50.4 g PM/kg, different groups (normal, ANIT, CCl4), oral AE-PM) is < 0.5 h.

Take `O=C(O)c1cc(O)c(O)c(O)c1` [Gallic acid, gallic acid]: the values for the mean residence time (MRT inf) in the data set “in vivo” (ANIT group rats), in the data set “in vivo” (CCl4 group rats) and in “in vivo” (Normal group rats) were 55.7 ± 4.22 h, 3.06 ± 0.12 h and 12.8 ± 1.02 h, respectively. The Tmax in the data set “in vivo” (ANIT group rats) worked out at 0.75 ± 0.0231 h; in the data set “in vivo” (CCl4 group rats), 0.25 ± 0.0641 h; in the data set “in vivo” (Normal group rats) it was 0.25 ± 0.0728 h. The Vd/F in “in vivo” (Vz/F) came out at 205 ± 2.2 L/kg.

In the case of `COc1cc(O)c2c(c1)C(=O)c1cc(C)cc(O)c1C2=O` [Physcion, physcion], in data set [1] (ANIT model rats, oral AE-PM), the “Decrease of AUC (0-∞) compared with the normal group” value stood at 49.77% and the “Decrease of Cmax compared with the normal group” value was 29.48%. In data set [1] (CCl4 model rats, oral AE-PM), the “Increase of AUC (0-∞)” value was 29.24% and the “Increase of Cmax” value worked out at 173.72%. Besides, the “Levels of glucuronidation and sulfation conjugates in plasma” value in data set [1] (oral AE-PM, sulfatase hydrolysis) is “too low to allow pharmacokinetic analysis”. In data set [1] (setting [2]), the AUC(0-inf) is 14000 ng·h/mL, the CL/F was 23.9 mL/min/kg, the Cmax was found to be 1510 ng/mL and the MRT inf is 37.6 ± 2.27 h. For the same compound, in data set [1] (setting [2]), the Tmax came out at 0.75 ± 0.0238 h, the Vd/F amounted to 59.8 ± 3.41 L/kg and the half-life is 28.9 ± 1.5 h. In addition, in data set [1] (setting [3]), the AUC(0-inf) was 36000 ng·h/mL, the CL/F was 9.27 mL/min/kg, the Cmax amounted to 5840 ng/mL and the MRT inf turned out to be 10 ± 1.14 h. In data set [1] (setting [3]), the Tmax came to 1 ± 0.0675 h, the Vd/F is 7.05 ± 1.11 L/kg and the half-life was 8.78 ± 1.6 h. For the same compound, in data set [1] (setting [4]), the AUC(0-inf) worked out at 27800 ng·h/mL, the CL/F was 12 mL/min/kg, the Cmax worked out at 2140 ng/mL and the MRT inf turned out to be 26.7 ± 1.52 h. Moreover, in data set [1] (setting [4]), the Tmax was 0.5 ± 0.094 h, the Vd/F came out at 17.6 ± 2.41 L/kg and the half-life was 17 ± 1.87 h.

Source of the values: publication PMC8245786, “Comparative Studies on Multi-Component Pharmacokinetics of Polygonum multiflorum Thunb Extract After Oral Administration in Different Rat Models” (Frontiers in Pharmacology, 2021).
